Measurements as given in patent publication EP2832347B1, “Method for identifying patchouli odorant materials” (Takasago International Corporation, priority 2013, dated 2015).
Where “and” joins values, the source holds several entries; their conditions need not be identical. Equal entries are not always repeated. Where two headings read alike, the source gives them in different places. One block for each compound: values may come before it.

Tests used:
OR11A1 [1] = biological target: T1, OR11A1 (Homo sapiens, UniProt Q9GZK7); conditions: Adipietro et al., PLoS Genet. 2012; cited from earlier work
T1 construct: expressed in transfected cells; host or cells: HEKOlf (HEK293 stably expressing human Galpha-olf and bovine CNGA2)
T1 sequence (Q9GZK7 1-315): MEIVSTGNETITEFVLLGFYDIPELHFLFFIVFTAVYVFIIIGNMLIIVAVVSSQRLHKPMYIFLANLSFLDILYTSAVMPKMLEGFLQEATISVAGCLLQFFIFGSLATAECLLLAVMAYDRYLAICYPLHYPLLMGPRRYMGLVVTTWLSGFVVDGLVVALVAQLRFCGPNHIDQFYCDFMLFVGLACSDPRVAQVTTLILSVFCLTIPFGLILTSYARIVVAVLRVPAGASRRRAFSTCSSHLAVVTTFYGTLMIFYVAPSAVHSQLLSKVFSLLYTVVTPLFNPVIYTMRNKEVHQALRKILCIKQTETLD

OR11L1 = biological target: T2, OR11L1 (Homo sapiens, UniProt Q8NGX0); experiment: CRE-luciferase reporter assay in HEKOlf cells transiently transfected with OR11L1; format: cell-based; conditions: Example 3; 10/30/100 µM
T2 construct: expressed in transfected cells; host or cells: HEKOlf (HEK293 stably expressing human Galpha-olf and bovine CNGA2)
T2 sequence (Q8NGX0 1-322): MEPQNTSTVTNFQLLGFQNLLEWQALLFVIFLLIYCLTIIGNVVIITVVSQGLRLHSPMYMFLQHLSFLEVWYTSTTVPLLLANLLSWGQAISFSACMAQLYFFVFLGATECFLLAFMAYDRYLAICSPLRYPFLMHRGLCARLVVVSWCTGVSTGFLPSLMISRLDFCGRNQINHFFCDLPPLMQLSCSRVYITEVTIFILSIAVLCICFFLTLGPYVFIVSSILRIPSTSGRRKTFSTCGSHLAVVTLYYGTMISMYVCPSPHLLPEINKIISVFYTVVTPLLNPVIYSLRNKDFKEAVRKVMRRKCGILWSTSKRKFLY
Procedure: (§1) The experiments were performed using a HEK293 cell line (deposited at the ATCC under accession n° CRL-1573) stably expressing the Gαolf G-protein and the cyclic nucleotide gated ion channel A2 subunit (CNGA2) (herein called HEKOlf). As described by Shirokova et al., 2005, the human Gαolf cDNA was cloned into the mammalian expression vector pPuro and cDNA for the bovine cyclic nucleotide gated ion channel A2 (CNGA2) subunit was cloned into the mammalian expression vector pcDNA3. Both constructs were transfected using Lipofectamine2000 (Invitrogen) following the manufacturer's instructions. Cellular clones stably expressing Gαolf and CNGA2 were obtained by antibiotic selection with 0.5µg/ml Puromycin and 200µg/ml Geneticin.
All odorants were stored in the dark at 4°C upon delivery. […]
(§2) In this assay, the interaction of an odorant with its cognate olfactory receptor leads to the activation of the human Gαolf G-protein. […] The cells were then transferred into an automated fluorometric imaging plate reader (FLIPR^TETRA, Molecular Devices). […]
(§3) The data obtained from different well replicates were analyzed with Excel, ScreenWorks, and SigmaPlot 10. […] The mean and standard deviation of the resulting fold of change values were calculated and plotted in vertical bar charts or concentration-response curves fitted by the SigmaPlot 10 software. […]

OR11A1 [2] = biological target: T1, OR11A1; experiment: CRE-luciferase reporter assay in HEKOlf cells transiently transfected with OR11A1; format: cell-based; conditions: for EC50: Example 4, Table 5, 0.03-100 µM tested; for Potency and efficacy on OR11A1 (comparison between odorants): 0.1 to 100 µM (Figure 6)
Procedure: as §1
All odorants were stored in the dark at 4°C upon delivery. They were prepared at 100mM stock solutions using DMSO as a solvent and stored at -20°C. On the day of the experiment the different stock solutions were directly diluted in the assay buffer (Tyrode's buffer) having the following composition: 5mM KCI, 130mM NaCl, 2mM CaCl2, 5mM NaHCO3, 1mM MgCl2, 20mM HEPES, pH7.4.
(§4) All transient transfections were performed with Lipofectamine 2000 (Invitrogen) according to the manufacturer's protocol. 10µl Lipofectamine 2000 were diluted in 500 µl DMEM and incubated for 5 minutes at room temperature. At the same time, 3µg of plasmid DNA were diluted in 500µl DMEM and added to the Lipofectamine 2000 mix to obtain a final volume of 1000µl. After incubation for a further 30 minutes at room temperature, the DNA-Lipofectamine complex was added to 1000µl of a cell suspension containing 1.600.000 cells/ml. Subsequently, 25µl per well of the complete mixture were seeded in black 384 well polystyrene assay plates. 25µl DMEM containing 20% FBS were added to each well 3 hours post-transfection.
(§5) The cDNAs for all olfactory receptors and an empty control vector were co-transfected with pGL4.29 (Promega). The pGL4.29 vector contains a cyclic adenosine monophosphate (cAMP) response element (CRE) that drives the transcription of the luciferase reporter gene luc2P (Photinus pyralis). luc2P is a synthetically-derived luciferase sequence with humanized codon optimization that is designed for high expression and reduced anomalous transcription.
In this assay, the interaction of an odorant with its cognate olfactory receptor leads to the activation of the human Gαolf G-protein. Gαolf is a stimulatory G-protein (Gαs) and activates adenylate cyclase, which converts adenosine triphosphate (ATP) into cAMP. Therefore, the activity of the transcribed luciferase can be used as an indication of olfactory receptor activation. 24 hours post-transfection the medium was removed from the transfected cells and 30 µl Tyrode's buffer containing the diluted odorants were added and incubated for 6 hours at 37°C. The cells were then transferred into an automated fluorometric imaging plate reader (FLIPR^TETRA, Molecular Devices). Subsequently, 25µl of a mixture composed of Triton X-100 and luciferin (1:1) were added. The addition of this mixture led to cell lyses and allowed interaction of the luciferase with its substrate luciferin resulting in a detectable emission of light.
The data obtained from different well replicates were analyzed with Excel, ScreenWorks, and SigmaPlot 10. The responses of each receptor to the odorants were divided by the mean responses of the receptor towards Tyrode's buffer (fold of change FOC1). The specificity of FOC1 was checked by comparing with a second FOC (FOC2) obtained by stimulating a control sample, consisting in an empty expression vector, with the same odorants and Tyrode's buffer. The mean and standard deviation of the resulting fold of change values were calculated and plotted in vertical bar charts or concentration-response curves fitted by the SigmaPlot 10 software.

[3] = system: seven other OR11A1-related olfactory receptors; experiment: CRE-luciferase reporter assay on OR11A1 related receptors; format: cell-based, human; conditions: 10/30/100 µM
Procedure: as §1, §4, §5
In this assay, the interaction of an odorant with its cognate olfactory receptor leads to the activation of the human Gαolf G-protein. Gαolf is a stimulatory G-protein (Gαs) and activates adenylate cyclase, which converts adenosine triphosphate (ATP) into cAMP. Therefore, the activity of the transcribed luciferase can be used as an indication of olfactory receptor activation. […] The cells were then transferred into an automated fluorometric imaging plate reader (FLIPR^TETRA, Molecular Devices). […]
as §3

[4] = Long-lasting analysis on scent strip (GC-MS with internal standard); format: physicochemical; conditions: for POG (GC-MS signal), sample 1-3 / Ratio POG/IS, sample 1-3: individual scent strips, listed as POG
Procedure: In one embodiment, the long-lasting analysis is carried out as follows: 50 µl of a 1 % solution of the identified candidate to be tested in alcohol, preferably ethanol, are applied on a scent strip, preferably a cellulosic scent strip, to be dosed. The strip is allowed to dry under ambient laboratory conditions, with normal room air movement, in particular no fan, heating or any mean or device to accelerate evaporation. After different times, each strip or at least the part of the scent strip including the area where the solution of the identified candidate to be tested was applied is extracted using 3 ml of alcohol, preferably ethanol, containing an internal standard, such as methyl decanoate. The extracts are then analyzed by gas chromatography and the result is normalized for the principal molecular ion of the identified candidate using the value for the internal standard.
50 µl of a 1 % solution of patchouli alcohol in ethanol was added by pipette to the tip to a series of different scent strips (SARL H. GRANGER-VEYRON, Privas, France). The strips were allowed to dry under ambient laboratory conditions.
After different times (t0, t0+1hour, t0+2hours, t0+4hours, t0+8hours) the tip of a strip where the 50 µl of the solution of the tested material had been applied was cut and put in a 30 ml bottle and extracted using 3 ml of ethanol, containing 50 µl of methyl decanoate as internal standard (10000 ppm solution in cyclohexane), added to each bottle. Care was taken to ensure the entire area around the point of application was included in the area that was cut and extracted. The content of the bottles was mixed for 30 min on a roller bed, and 2 ml vials were then filled with each sample.
Samples were triplicated, i.e. 3 scent strip tips were analysed for each time point.
In a first series of experiments, samples taken at t0, t0+1hour and t0+2hours were analyzed by GC-MS on a […] gas chromatography column (column BC-WAX (50m * 0.25mm * 0.15µm) which is a GC Sciences column supplied by Interchim, Montluçon, France).
In a second series of experiments, samples taken at t0, t0+4hours and t0+8hours were analyzed by GC-MS on a non-polar gas chromatography column (HP-5MS UI (30m * 0.25mm * 0.25µm) which is an Agilent column supplied by Chromoptic, Courtaboeuf, France).
In Tables 6-11, PA stands for patchouli alcohol and IS stands for the internal standard, i.e. methyl decanoate. When plotting the residual concentration of patchouli on the scent strip as a function of time, the mean ratio at t0 was normalized to 100 and then t0+1h, t0+2h, t0+4h and t0+8h were calculated; t0 being defined as 2 minutes after dosing the 50 µl of the solution of the tested material, which was applied towards the tip of the scent strip.
A "long-lasting" analysis of pogostone was performed as described in Example 5 with samples taken at t0, t0+1hour and t0+2hours.
In Tables 12-14 herebelow, POG stands for pogostone and IS stands for the internal standard, i.e. methyl decanoate. The mean ratio at t0 was normalized as described in Example 5.

OR7D4 = biological target: T3, OR7D4 (Homo sapiens, UniProt Q8NG98); experiment: CRE-luciferase reporter assay, positive control receptor OR7D4; format: cell-based; conditions: 10 µM
T3 construct: expressed in transfected cells; host or cells: HEKOlf (HEK293 stably expressing human Galpha-olf and bovine CNGA2)
T3 sequence (Q8NG98 1-312): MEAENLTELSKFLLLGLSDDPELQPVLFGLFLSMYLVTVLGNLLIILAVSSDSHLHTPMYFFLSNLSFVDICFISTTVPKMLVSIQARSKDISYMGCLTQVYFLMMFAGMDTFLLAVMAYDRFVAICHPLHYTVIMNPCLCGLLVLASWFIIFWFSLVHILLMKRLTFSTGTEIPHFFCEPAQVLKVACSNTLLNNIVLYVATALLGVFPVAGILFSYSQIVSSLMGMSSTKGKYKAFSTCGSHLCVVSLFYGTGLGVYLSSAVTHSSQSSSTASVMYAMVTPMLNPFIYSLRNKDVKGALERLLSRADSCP
Procedure: as §1
All transient transfections were performed with Lipofectamine 2000 (Invitrogen) according to the manufacturer's protocol. […]
as §2, §3

[5] = system: 65 human olfactory receptors; experiment: Screening against the set of 65 human olfactory receptors (CRE-luciferase); format: cell-based; conditions: 10 µM; including negative control receptor hTAS2R16
Procedure: as §1, with “Geneticin. […]” for “Geneticin.”
as §2, §3

[6] = Example 4, 3, 10 and 30 µM (Figure 5)

Compound: CCC1(O)C2(C)CCC(C2)C1(C)C (stereo not shown) [2-ethylfenchol]
- activation of OR11A1 (OR11A1 [1]): activation of OR11A1

Compound: CC1(C)C2CCC3(C)C4C(CCC13O)C24 (stereo not shown) [Patcho 315, 6a,7,7-trimethyldecahydro-1,4-methanocyclopropa[de]naphtalen-1-ol]
- response in cells transfected with OR11L1 (OR11L1): unable to elicit a detectable response
- activation of OR11A1 (OR11A1 [2]; Example 3, 10/30/100 µM): strongly activated
- EC50 (OR11A1 [2]): 2.9 ± 0.9 µM
- Potency and efficacy on OR11A1 (comparison between odorants) (OR11A1 [2]; Example 4): highest
- activation of OR11A1 (OR11A1 [2]; [6]): strongly activated
- fold of change ([3]; Example 3, figure 4): around 1
- response of seven other OR11A1-related olfactory receptors ([3]; Example 3): none of the seven other OR11A1-related olfactory receptors responded

Compound: Cc1cc(O)c(C(=O)CCC(C)C)c(=O)o1 [Pogostone, pogostone]
- retained initial concentration ([4]; after 1 hour on scent strip): at least 10%
- POG (GC-MS signal), mean value ([4]; t0): 1.11E+06
- Ratio POG/IS, mean value ([4]; t0): 2.61E-01
- POG (GC-MS signal), mean value ([4]; t0+1h): 9.55E+05
- Ratio POG/IS, mean value ([4]; t0+1h): 2.08E-01
- POG (GC-MS signal), sample 1-3 ([4]; t0+1h): 1.05E+06 and 9.11E+05 and 9.09E+05
- Ratio POG/IS, sample 1-3 ([4]; t0+1h): 2.22E-01 and 1.98E-01 and 2.03E-01
- POG (GC-MS signal), mean value ([4]; t0+2h): 8.34E+05
- Ratio POG/IS, mean value ([4]; t0+2h): 1.82E-01
- POG (GC-MS signal), sample 1-3 ([4]; t0+2h): 8.11E+05 and 8.75E+05 and 8.15E+05
- Ratio POG/IS, sample 1-3 ([4]; t0+2h): 1.75E-01 and 1.87E-01 and 1.85E-01
- POG (GC-MS signal), sample 1-3 ([4]; t0): 1.17E+06 and 1.06E+06 and 1.09E+06
- Ratio POG/IS, sample 1-3 ([4]; t0): 2.92E-01 and 2.45E-01 and 2.48E-01
- EC50 (OR11A1 [2]): 14.8 ± 3.3 µM
- Potency and efficacy on OR11A1 (comparison between odorants) (OR11A1 [2]; Example 4): comparable
- activation of OR11A1 (OR11A1 [2]; [6]): able to elicit activation

Compound: C[C@]12CCC(=O)C[C@@H]1CC[C@@H]1[C@@H]2CC[C@]2(C)C=CC[C@@H]12 [androstenone]
- activation of OR7D4 (OR7D4): robustly activated
- response of the 65 olfactory receptors tested [5]: did not respond

Further lines, results first:

- activation of OR11A1 (OR11A1 [2]; Example 4, up to 100µM): did not activate
Compound: CC1(C)CCC[C@]2(O)C(C)(C)[C@H]3CC[C@@]12C3 [Terranol, terranol]

- activation of OR11A1 (OR11A1 [2]; Example 4, up to 100µM): did not activate
Compound: CC1CCC2C(C)(C)C3CC12CC1OC13C (stereo not shown) [andrane]

- EC50 (OR11A1 [2]): 10.7 ± 2.6 µM
- Potency and efficacy on OR11A1 (comparison between odorants) (OR11A1 [2]; Example 4): comparable
- activation of OR11A1 (OR11A1 [2]; [6]): able to elicit activation
Compound: norpatchouli alcohol
